The molecules below were run on mice (assay: acute toxicity (LD50), intraperitoneal administration in mice). Conditions: mice (male, 20 g).
Format: in vivo
Excerpt: Representative LD50 values, for example, for N^2 -(6,7-dimethoxy-2-naphthylsulfonyl)-L-arginyl-N-butylalanine and N^2 -(4,6-dimethoxy-2-naphthylsulfonyl)-L-arginyl-N-cyclohexylmethylalanine are above 1,500 milligrams per kilogram each.

With `COc1ccc2cc(S(=O)(=O)N[C@@H](CCCNC(=N)N)C(=O)N(CC3CCCCC3)[C@@H](C)C(=O)O)cc(OC)c2c1` [compound 12, N^2-(4,6-dimethoxy-2-naphthylsulfonyl)-L-arginyl-N-cyclohexylmethylalanine] the “acute toxicity values (LD50)” value was “above 1,500 milligrams per kilogram”.
With `CCCCN(C(=O)[C@H](CCCNC(=N)N)NS(=O)(=O)c1ccc2cc(OC)c(OC)cc2c1)[C@@H](C)C(=O)O` [compound 2, N^2-(6,7-dimethoxy-2-naphthylsulfonyl)-L-arginyl-N-butylalanine] the “acute toxicity values (LD50)” value was “above 1,500 milligrams per kilogram”.

Each molecule was assayed against T1, thrombin (Bos taurus, UniProt P00735) (assay: fibrinogen coagulation time (thrombin added to bovine fibrinogen solution)). Conditions: thrombin 5 units/ml, borate saline buffer pH 7.4, 25° C, normal coagulation time 50-55 seconds prolonged to 100-110 seconds.
T1 construct: purchased Mochida Pharmaceutical Co., Ltd
Format: biochemical
Procedure: The measurement of the fibrinogen coagulation time was conducted as follows:
Immediately after mixing, the reaction mixture was transferred from the ice bath to a bath maintained at 25° C. Coagulation times were taken as the period between the time of transference to the 25° C bath and the time of the first appearance of fibrin threads.
The term "concentration required to prolong the coagulation time by a factor of two" is the concentration of an active ingredient required to prolong the normal coagulation time 50-55 seconds to 100-110 seconds.

`COc1ccc2cc(S(=O)(=O)N[C@@H](CCCNC(=N)N)C(=O)N(CC3CCCCC3)[C@@H](C)C(=O)O)cc(OC)c2c1` [compound 12, N^2-(4,6-dimethoxy-2-naphthylsulfonyl)-L-arginyl-N-cyclohexylmethylalanine] and `COCCN(C(=O)[C@H](CCCNC(=N)N)NS(=O)(=O)c1ccc2cc(OC)c(OC)cc2c1)[C@@H](C)C(=O)O` [compound 15, N^2-(6,7-dimethoxy-2-naphthylsulfonyl)-L-arginyl-N-(2-methoxyethyl)alanine] are within 1.5-fold of each other in “Concentration required to prolong the coagulation time by a factor of two” value (“Concentration required” below): 4.5 µM for the first, 5 µM for the second.

First: COc1cc2ccc(S(=O)(=O)N[C@@H](CCCNC(=N)N)C(=O)N(CCc3ccccc3)[C@@H](C)C(=O)O)cc2cc1OC [compound 8, N^2-(6,7-dimethoxy-2-naphthylsulfonyl)-L-arginyl-N-phenethylalanine]
Second: COc1cc2ccc(S(=O)(=O)N[C@@H](CCCNC(=N)N)C(=O)N(Cc3ccccc3)[C@@H](C)C(=O)O)cc2cc1OC [compound 6, N^2-(6,7-dimethoxy-2-naphthylsulfonyl)-L-arginyl-N-benzylalanine]
The “Concentration required” value of the first is 1.7-fold lower: 1.5 µM for the first, 2.5 µM for the second.

`COc1cc2ccc(S(=O)(=O)N[C@@H](CCCNC(=N)N)C(=O)N(C)[C@@H](Cc3ccccc3)C(=O)O)cc2cc1OC` [compound 18, N^2-(6,7-dimethoxy-2-naphthylsulfonyl)-L-arginyl-N-methylphenylalanine] and `COc1ccc2ccc(S(=O)(=O)N[C@@H](CCCNC(=N)N)C(=O)N(C)[C@@H](Cc3ccccc3)C(=O)O)cc2c1` [compound 20, N^2-(7-methoxy-2-naphthylsulfonyl)-L-arginyl-N-methyl-phenylalanine] are within 1.5-fold of each other in “Concentration required” value: 2 µM for the first, 2.5 µM for the second.

Compared with `CCCCCN(C(=O)[C@H](CCCNC(=N)N)NS(=O)(=O)c1ccc2cc(OC)c(OC)cc2c1)[C@@H](C)C(=O)O` [compound 4, N^2-(6,7-dimethoxy-2-naphthylsulfonyl)-L-arginyl-N-pentylalanine], `CCC[C@H](NC(=O)[C@H](CCCNC(=N)N)NS(=O)(=O)c1ccc2cc(OC)c(OC)cc2c1)C(=O)O` [compound 21, N^2-(6,7-dimethoxy-2-naphthylsulfonyl)-L-arginylnorvaline] is 7.5-fold higher in “Concentration required” value: 2.0 µM for the first, 15 µM for the second.
